How the values were obtained:
[1] = test system: TNF-α production in THP-1 cells; experiment: Measurement of TNF-α production inhibitory activity in LPS-stimulated THP-1 cells (ELISA); type: cell-based; settings: Homo sapiens, LPS 5 μg/mL, 4 hours, TNF-α in supernatant by ELISA
Procedure: Measurement of TNF-α Production Inhibitory Activity
After THP-1 cells which had been cultured in PRMI 1640 medium (manufactured by Life Technologies, Inc.) containing 1% non-activated bovine fetal serum (manufactured by Life Technologies, Inc., U.S.A.) and 10 mM HEPES (pH 7.5) was plated on a 96-well plate to 1×10^5 cells/well, 1 μL test compound dissolved in DMSO was added to there. After incubation at 37° C. for 1 hour in a CO2 incubator, LPS (Wako Pure Chemicals) was added to the final concentration 5 μg/mL. After cultured at 37° C. for 4 hours in a CO2 incubator, the supernatant was obtained by centrifugation. The concentration of TNF-α in the supernatant was measured with ELISA (R&D System, Quantikine Kit). The concentration (IC50 value) necessary for inhibiting TNF-α production by 50% was calculated by PRIMS 2.01 (Graphpad Software).

[2] = biological target: T1, active form p38 MAP kinase (Homo sapiens, UniProt Q16539); experiment: Measurement of the p38 MAP kinase inhibitory activity (32P uptake into Myelin Basic Protein); type: biochemical; settings: 260 ng active form p38 MAP kinase, 1 μg Myelin Basic Protein, 2.5 μM ATP solution, 30° C. for 60 minutes
T1 construct: made in house; host or cells: Sf-21 insect cells, baculovirus BAC-HP38 co-infected with BAC-caMKK3
Procedure: (1) Cloning of Human p38 MAP Kinase Gene and Preparation of Recombinant Baculovirus
Cloning of human p38 MAP kinase gene was performed by a PCR method using a primer set P38-U:
(3) Preparation of Active Form p38 MAP Kinase
The Sf-21 cells were seeded on 100 ml Sf-900II SFM medium (GIBCOBRL) to 1×10^6 cells/mL and cultured at 27° C. for 24 hours. After each 0.2 mL of the virusstock BAC-HP38 of recombinant Baculovirus and BAC-caMKK3 were added, the culturing was further performed for 48 hours. After the cells were separated from the culturing solution by centrifugation (3000 rpm, 10 min), the cells were washed twice with PBS. After the cells were suspended in 10 ml Lysis buffer (25 mM HEPES (pH 7.5), 1% Triton X, 130 mM NaCl, 1 mM EDTA, 1 mM DTT, 25 mM β-glycerophosphate, […], 1 mM APMSF, 1 mM Sodium orthovanadate), the cells were lysed by treating twice with a homogenizer (POLYTRON) at 20000 rpm for 2 minutes. By using Anti-FLAG M2 Affinity Gel (Eastman Chemical), active form p38 MAP kinase was purified from the supernatant obtained by centrifugation (40000 rpm, 45 minutes).
(4) Measurement of the p38 MAP Kinase Inhibitory Activity
2.5 μL of a test compound dissolved in DMSO was added to 37.5 μL reaction solution (25 mM HEPES (pH 7.5), 10 mM Magnesium Acetate) containing 260 ng active form p38 MAP kinase and 1 μg Myelin Basic Protein, which was maintained at 30° C. for 5 minutes. The reaction was initiated by adding 10 μL ATP solution (2.5 μM ATP, 0.1 μCi [g-^32P]ATP). After the reaction was performed at 30° C. for 60 minutes, the reaction was stopped by adding 50 μL 20% TCA solution. After the reaction solution was allowed to stand at 0° C. for 20 minutes, an acid insoluble fraction was transferred to GF/C filter (Packard Japan) using Cell Harvester (Packard Japan) and washed with 250 mM H3PO4. After drying at 45° C. for 60 minutes, […] Microscint 0 (Packard Japan) was added and the radioactivity was measured with a TopCount (Packard Japan). The concentration (IC50 value) necessary for inhibiting uptake of ^32P into an acid insoluble fraction by 50% was calculated with PRISM 2.01 (Graphpad Software).

[3] = test system: MMP-13 production in human normal articular chondrocytes; experiment: Measurement of MMP-13 production inhibitory activity in rhIL-1β-stimulated human normal articular chondrocytes (ELISA); type: cell-based; settings: Chondrocyte, rhIL-1β 0.1 ng/mL, 24 hr, MMP-13 in culture supernatant by ELISA
Procedure: Measurement of MMP-13 Production Inhibitory Activity
Human normal articular chondrocytes (Camblex) were grown in a chondrocyte growth medium (CGM: Camblex), and the cells were suspended in a chondrocyte differentiation medium (CDM: Camblex) and plated on a 96 well plate at 2×10^4 cells/well (150 μL/well). After culturing for 3 days under 37° C., 5% CO2 conditions, the culture medium was exchanged to 0.1% BSA added α-modification of Eagle's (α-MEM: Gibco), and the cells were cultured for 4 hr. The compound was added thereto and, after culture for 1 hr, recombinant human IL-1β (rhIL-1β: R&D systems) was added at 0.1 ng/mL. After culture for 24 hr, the culture supernatant was recovered, and the concentration of MMP-13 in the culture supernatant was measured by the ELISA method (Amersham).

T1 sequence (Q16539 whole entry): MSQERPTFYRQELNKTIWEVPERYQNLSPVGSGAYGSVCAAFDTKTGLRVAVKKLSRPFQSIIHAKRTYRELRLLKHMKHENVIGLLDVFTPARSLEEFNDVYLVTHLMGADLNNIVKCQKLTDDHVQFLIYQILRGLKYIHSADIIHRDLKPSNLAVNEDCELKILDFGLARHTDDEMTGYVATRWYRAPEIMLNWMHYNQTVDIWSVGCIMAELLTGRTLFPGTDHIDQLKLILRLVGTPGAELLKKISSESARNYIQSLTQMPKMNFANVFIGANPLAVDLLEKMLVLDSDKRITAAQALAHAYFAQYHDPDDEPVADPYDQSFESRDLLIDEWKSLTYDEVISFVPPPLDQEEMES

Row | Structure (SMILES) | IC50 [1] [µM] | IC50 [2] [µM] | IC50 [3] [µM]
1 | COc1ccc(C(=O)Nc2cc(-c3c(-c4ccc(F)c(C)c4)nc4cccnn34)ccn2)cc1 [Example 21-16, N-{4-[2-(4-fluoro-3-methylphenyl)imidazo[1,2-b]pyridazin-3-yl]pyridin-2-yl}-4-methoxybenzamide] | 0.014 | 0.0012 | 0.041
2 | Cc1cccc(-c2nc3cccnn3c2-c2ccnc(Nc3ccccc3C)c2)c1 [Example Compound 6-10, N-(2-methylphenyl)-4-[2-(3-methylphenyl)imidazo[1,2-b]pyridazin-3-yl]pyridin-2-amine] | 0.0098 | 0.0026 | 0.082
3 | Cc1cccc(-c2nc3cccnn3c2-c2ccnc(NC(=O)Nc3ccccc3)c2)c1 [Example 26, N-{4-[2-(3-Methylphenyl)imidazo[1,2-b]pyridazin-3-yl]pyridin-2-yl}-N′-phenylurea] | 0.33 | 0.022 | 0.077
4 | Cc1cccc(-c2nc3ccc(Cl)nn3c2-c2ccnc(F)c2)c1 [Example 1, 6-Chloro-3-(2-fluoropyridin-4-yl)-2-(3-methylphenyl)imidazo[1,2-b]pyridazine] | 0.95 | 0.11 | 0.6
5 | Cc1ccc(C(=O)Nc2cc(-c3c(-c4cccc(C)c4)nc4cccnn34)ccn2)cc1 [Example 20-1, 4-methyl-N-{4-[2-(3-methylphenyl)imidazo[1,2-b]pyridazin-3-yl]pyridin-2-yl}benzamide] | 0.018 | 0.0084 | 0.073
6 | CCNC(=O)Nc1cc(-c2c(-c3ccc(F)c(C)c3)nc3cccnn23)ccn1 [Example compound 28-3, N-ethyl-N′-{4-[2-(4-fluoro-3-methylphenyl)imidazo[1,2-b]pyridazin-3-yl]pyridin-2-yl}urea] | 0.045 | 0.0079 | 0.57
7 | Cc1cccc(-c2nc3ccc(Cl)nn3c2-c2ccnc(NC3CCCCC3)c2)c1 [Example 2, 4-[6-Chloro-2-(3-methylphenyl)imidazo[1,2-b]pyridazin-3-yl]-N-cyclohexylpyridin-2-amine] | 0.028 | 0.19 | 0.011
8 | CC(=O)Nc1cc(-c2c(-c3cccc(C)c3)nc3ccc(Cl)nn23)ccn1 [Example 17, N-{4-[6-Chloro-2-(3-methylphenyl)imidazo[1,2-b]pyridazin-3-yl]pyridin-2-yl}acetamide] | 0.12 | 0.023 | 0.22
9 | Cc1cccc(-c2nc3cccnn3c2-c2ccnc(NC(=O)c3ccc(F)cc3)c2)c1 [Example compound 20-11, 4-fluoro-N-{4-[2-(3-methylphenyl)imidazo[1,2-b]pyridazin-3-yl]pyridin-2-yl}benzamide] | 0.0038 | 0.014 | 0.04
10 | Cc1cccc(-c2nc3cccnn3c2-c2ccnc(F)c2)c1 [Example 4, 3-(2-fluoropyridin-4-yl)-2-(3-methylphenyl)imidazo[1,2-b]pyridazine] | 0.32 | 0.16 | 1.52
11 | Cc1cccc(-c2nc3cccnn3c2-c2ccnc(NC(=O)C3CC3)c2)c1 [Example compound 20-10, N-{4-[2-(3-methylphenyl)imidazo[1,2-b]pyridazin-3-yl]pyridin-2-yl}cyclopropanecarboxamide] | 0.0054 | 0.0097 | 0.025
12 | Cc1cccc(-c2nc3cccnn3c2-c2ccnc(NCC3CC3)c2)c1 [Example 5, N-(Cyclopropylmethyl)-4-[2-(3-methylphenyl)imidazo[1,2-b]pyridazin-3-yl]pyridin-2-amine] | 0.0039 | 0.0025 | 0.011
13 | Cc1cccc(-c2nc3ccc(N(C)C)nn3c2-c2ccnc(NC3CCCCC3)c2)c1 [Example 7, 3-[2-(cyclohexylamino)pyridin-4-yl]-N,N-dimethyl-2-(3-methylphenyl)imidazo[1,2-b]pyridazin-6-amine] | 0.0001 | 0.0087 | 0.0051
14 | Cc1cc(-c2nc3cccnn3c2-c2ccnc(NC(=O)NC(C)C)c2)ccc1F [Example compound 28-5, N-{4-[2-(4-fluoro-3-methylphenyl)imidazo[1,2-b]pyridazin-3-yl]pyridin-2-yl}-N′-isopropylurea] | 0.064 | 0.014 | 0.064

Continued, in another order:

Row | IC50 [1] [µM] | IC50 [2] [µM] | Structure (SMILES) | IC50 [3] [µM]
15 | 0.015 | 0.0081 | Cc1cc(-c2nc3cccnn3c2-c2ccnc(NC(=O)c3ccc(F)cc3)c2)ccc1F [Example 41-1, 4-fluoro-N-{4-[2-(4-fluoro-3-methylphenyl)imidazo[1,2-b]pyridazin-3-yl]pyridin-2-yl}benzamide] | 0.035
16 | 0.001 | 0.0049 | Cc1cc(-c2nc3cccnn3c2-c2ccnc(NC(=O)NCCC#N)c2)ccc1F [Example 51-14, N-(2-cyanoethyl)-N′-{4-[2-(4-fluoro-3-methylphenyl)imidazo[1,2-b]pyridazin-3-yl]pyridin-2-yl}urea] | 0.032
17 | 0.0061 | 0.0077 | CSCC(=O)Nc1cc(-c2c(-c3ccc(F)c(C)c3)nc3cccnn23)ccn1 [Example 42-6, N-{4-[2-(4-fluoro-3-methylphenyl)imidazo[1,2-b]pyridazin-3-yl]pyridin-2-yl}-2-(methylthio)acetamide] | 0.011
18 | 0.0095 | 0.0087 | Cc1cc(-c2nc3cccnn3c2-c2ccnc(NC(=O)C3CC3)c2)ccc1F [Example 42-3, N-{4-[2-(4-fluoro-3-methylphenyl)imidazo[1,2-b]pyridazin-3-yl]pyridin-2-yl}cyclopropanecarboxamide] | 0.035
19 | 0.0025 | 0.0039 | Cc1cc(-c2nc3cccnn3c2-c2ccnc(NC(=O)c3ccc4ncsc4c3)c2)ccc1F [Example 42-35, N-{4-[2-(4-fluoro-3-methylphenyl)imidazo[1,2-b]pyridazin-3-yl]pyridin-2-yl}-1,3-benzothiazole-6-carboxamide] | 0.0062
20 | 0.0071 | 0.0034 | Cc1cc(-c2nc3cccnn3c2-c2ccnc(NC(=O)c3ccc4ncccc4c3)c2)ccc1F [Example 42-36, N-{4-[2-(4-fluoro-3-methylphenyl)imidazo[1,2-b]pyridazin-3-yl]pyridin-2-yl}-6-quinolinecarboxamide] | 0.011
21 | 0.01 | 0.007 | Cc1cc(-c2nc3cccnn3c2-c2ccnc(NC(=O)NCCO)c2)ccc1F [Example 51-11, N-{4-[2-(4-fluoro-3-methylphenyl)imidazo[1,2-b]pyridazin-3-yl]pyridin-2-yl}-N′-(2-hydroxyethyl)urea] | 0.064

From US20080167314A1, “Condensed Imidazole Compound And Use Thereof” (priority 2004, published 2008)
